Legend:
ALK = ALK (Homo sapiens, UniProt Q9UM73); details: cited from earlier work
[1] = in vivo; cited from earlier work
[2] = system: pEGFR (TYR 1068), pSTAT3 (TYR 705), pAKT (SER 473), pERK1/2 (THR 202/TYR 204) in DLD1 cells; assay: Western blot of signaling in DLD1 cells; assay type: cell-based; details: 2 hour (BVN22E antibodies alone: 2 and 24 hour)
Experimental: The effects of BVN22E antibodies were investigated in DLD1 cells via Western Blots, see FIGS. 42 and 43.
The effect of Trametinib treatment in the DLD1 cell line was also assessed in a western blot assay and the results are presented in FIG. 45. […] Inhibition of pStat3 and pERK1/2 were observed, though only at concentrations beyond the physiological concentrations of Trametinib used in patients.
BVN22E antibodies alone inhibited phosphorylation of EGFR.

Chain of ALK (Q9UM73 19-1620): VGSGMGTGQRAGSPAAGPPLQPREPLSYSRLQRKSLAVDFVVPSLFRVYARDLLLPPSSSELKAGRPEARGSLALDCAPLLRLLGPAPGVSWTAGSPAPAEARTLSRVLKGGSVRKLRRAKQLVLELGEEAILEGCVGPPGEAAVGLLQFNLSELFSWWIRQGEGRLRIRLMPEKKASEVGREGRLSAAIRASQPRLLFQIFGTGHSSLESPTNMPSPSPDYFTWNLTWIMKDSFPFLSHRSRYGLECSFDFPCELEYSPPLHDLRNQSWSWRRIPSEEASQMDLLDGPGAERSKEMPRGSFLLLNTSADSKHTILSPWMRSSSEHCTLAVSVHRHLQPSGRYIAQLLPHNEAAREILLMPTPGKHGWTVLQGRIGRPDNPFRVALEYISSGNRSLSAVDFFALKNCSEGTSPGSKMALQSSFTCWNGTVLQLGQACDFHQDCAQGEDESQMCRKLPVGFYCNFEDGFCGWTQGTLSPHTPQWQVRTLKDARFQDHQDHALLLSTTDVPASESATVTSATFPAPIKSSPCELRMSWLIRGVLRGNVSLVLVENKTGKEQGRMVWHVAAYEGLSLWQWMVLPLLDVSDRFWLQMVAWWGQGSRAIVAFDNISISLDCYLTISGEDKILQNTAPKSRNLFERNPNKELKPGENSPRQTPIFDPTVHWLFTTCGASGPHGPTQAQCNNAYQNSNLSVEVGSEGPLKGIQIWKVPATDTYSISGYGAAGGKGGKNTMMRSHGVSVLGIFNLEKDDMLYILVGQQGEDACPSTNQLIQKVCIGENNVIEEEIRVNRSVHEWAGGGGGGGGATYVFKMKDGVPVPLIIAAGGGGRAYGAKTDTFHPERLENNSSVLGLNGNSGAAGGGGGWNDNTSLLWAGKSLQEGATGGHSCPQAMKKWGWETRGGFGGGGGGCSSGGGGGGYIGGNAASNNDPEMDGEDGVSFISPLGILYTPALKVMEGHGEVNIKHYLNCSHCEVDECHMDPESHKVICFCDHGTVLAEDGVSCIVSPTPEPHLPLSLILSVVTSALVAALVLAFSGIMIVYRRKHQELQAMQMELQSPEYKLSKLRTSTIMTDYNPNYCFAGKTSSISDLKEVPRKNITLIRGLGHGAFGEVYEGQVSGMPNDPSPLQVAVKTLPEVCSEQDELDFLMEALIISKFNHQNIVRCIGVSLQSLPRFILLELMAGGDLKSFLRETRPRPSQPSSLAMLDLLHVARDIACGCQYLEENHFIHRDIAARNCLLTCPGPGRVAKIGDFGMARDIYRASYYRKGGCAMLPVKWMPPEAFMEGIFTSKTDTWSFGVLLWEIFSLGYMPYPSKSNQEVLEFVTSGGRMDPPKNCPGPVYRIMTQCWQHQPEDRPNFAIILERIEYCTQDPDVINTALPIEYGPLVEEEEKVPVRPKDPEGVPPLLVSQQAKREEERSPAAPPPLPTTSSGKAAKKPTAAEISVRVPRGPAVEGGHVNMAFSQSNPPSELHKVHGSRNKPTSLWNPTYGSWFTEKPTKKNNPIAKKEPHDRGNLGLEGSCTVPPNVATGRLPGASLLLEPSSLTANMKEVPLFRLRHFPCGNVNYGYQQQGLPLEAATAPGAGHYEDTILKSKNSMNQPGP

## Cc1cc(Nc2ncc(Cl)c(Nc3ccccc3S(=O)(=O)C(C)C)n2)c(OC(C)C)cc1C1CCNCC1 [Ceritinib]
ALK; relative to crizotinib
  potency for inhibiting alk compared with crizotinib: 20 times

## C[C@@H]1CN(C(=O)c2ccc(NC(=O)c3cc(O[C@H](C)c4c(Cl)ccc(F)c4Cl)c(N)nn3)cc2)C[C@H](C)N1 [Ensartinib]
ALK
  IC50: < 0.4 nM

## C[C@H]1Oc2cc(cnc2N)-c2c(nn(C)c2C#N)CN(C)C(=O)c2ccc(F)cc21 [Lorlatinib]
[1]
  CNS penetration: highly CNS-penetrant

## CC(=O)Nc1cccc(-n2c(=O)n(C3CC3)c(=O)c3c(Nc4ccc(I)cc4F)n(C)c(=O)c(C)c32)c1 [Trametinib]
[2]
  pEGFR: no effect

Source: patent publication US12257245B2, “Methods and compositions for inhibition of EGF/EGFR pathway in combination with anaplastic lymphoma kinase inhibitors” (In3Bio Ltd., priority 2018, dated 2025)
